Test results reported in ChEMBL document CHEMBL4257449, “New N-(2-phenyl-4-oxo-1,3-thiazolidin-3-yl)-1,2-benzothiazole-3-carboxamides and acetamides as antimicrobial agents” (2017).
≈ marks a conversion by molar mass, not a printed value.

Tests used:
Aspergillus versicolor [1] = assay: Antifungal activity against Aspergillus versicolor ATCC 11730 after 72 hrs by serial dilution method; type: functional; details: ATCC 11730, 72 h
Talaromyces funiculosus [2] = assay: Antifungal activity against Penicillium funiculosum ATCC 36839 after 72 hrs by serial dilution method; type: functional; details: ATCC 36839, 72 h
Trichoderma viride [3] = assay: Antifungal activity against Trichoderma viride IAM 5061 after 72 hrs by serial dilution method; type: functional; details: IAM 5061, 72 h
Talaromyces funiculosus [4] = assay: Fungicidal activity against Penicillium funiculosum ATCC 36839 incubated for 72 hrs followed by serial sub-cultivation for 72 hrs and measured after 72 hrs by serial dilution method; type: functional
Pseudomonas aeruginosa [5] = assay: Bactericidal activity against Pseudomonas aeruginosa ATCC 27853 incubated for 24 hrs followed by serial sub-cultivation and measured after 24 hrs by microdilution method; type: functional
Salmonella typhimurium [6] = assay: Bactericidal activity against Salmonella typhimurium ATCC 13311 incubated for 24 hrs followed by serial sub-cultivation and measured after 24 hrs by microdilution method; type: functional, Salmonella enterica subsp. enterica serovar Typhimurium
Micrococcus flavus [7] = assay: Antibacterial activity against Micrococcus flavus ATCC 10240 after 24 hrs by microdilution method; type: functional; details: ATCC 10240, 24 h
Listeria monocytogenes [8] = assay: Bactericidal activity against Listeria monocytogenes NCTC 7973 incubated for 24 hrs followed by serial sub-cultivation and measured after 24 hrs by microdilution method; type: functional
Staphylococcus aureus [9] = assay: Antibacterial activity against Staphylococcus aureus ATCC 6538 after 24 hrs by microdilution method; type: functional; details: ATCC 6538, 24 h
Aspergillus ochraceus [10] = assay: Fungicidal activity against Aspergillus ochraceus ATCC 12066 incubated for 72 hrs followed by serial sub-cultivation for 72 hrs and measured after 72 hrs by serial dilution method; type: functional
Enterobacter cloacae [11] = assay: Antibacterial activity against Enterobacter cloacae after 24 hrs by microdilution method; type: functional
Staphylococcus aureus [12] = assay: Bactericidal activity against Staphylococcus aureus ATCC 6538 incubated for 24 hrs followed by serial sub-cultivation and measured after 24 hrs by microdilution method; type: functional
Micrococcus flavus [13] = assay: Bactericidal activity against Micrococcus flavus ATCC 10240 incubated for 24 hrs followed by serial sub-cultivation and measured after 24 hrs by microdilution method; type: functional
Escherichia coli [14] = assay: Bactericidal activity against Escherichia coli ATCC 35210 incubated for 24 hrs followed by serial sub-cultivation and measured after 24 hrs by microdilution method; type: functional
Aspergillus fumigatus [15] = assay: Fungicidal activity against Aspergillus fumigatus incubated for 72 hrs followed by serial sub-cultivation for 72 hrs and measured after 72 hrs by serial dilution method; type: functional
Penicillium ochrochloron [16] = assay: Fungicidal activity against Penicillium ochrochloron ATCC 9112 incubated for 72 hrs followed by serial sub-cultivation for 72 hrs and measured after 72 hrs by serial dilution method; type: functional
Bacillus cereus [17] = assay: Antibacterial activity against Bacillus cereus after 24 hrs by microdilution method; type: functional
Pseudomonas aeruginosa [18] = assay: Antibacterial activity against Pseudomonas aeruginosa ATCC 27853 after 24 hrs by microdilution method; type: functional; details: ATCC 27853, 24 h
Aspergillus ochraceus [19] = assay: Antifungal activity against Aspergillus ochraceus ATCC 12066 after 72 hrs by serial dilution method; type: functional; details: ATCC 12066, 72 h
Trichoderma viride [20] = assay: Fungicidal activity against Trichoderma viride IAM 5061 incubated for 72 hrs followed by serial sub-cultivation for 72 hrs and measured after 72 hrs by serial dilution method; type: functional
Candida albicans [21] = assay: Fungicidal activity against Candida albicans incubated for 72 hrs followed by serial sub-cultivation for 72 hrs and measured after 72 hrs by serial dilution method; type: functional
Aspergillus fumigatus [22] = assay: Antifungal activity against Aspergillus fumigatus after 72 hrs by serial dilution method; type: functional
Candida albicans [23] = assay: Antifungal activity against Candida albicans after 72 hrs by serial dilution method; type: functional
Aspergillus niger [24] = assay: Antifungal activity against Aspergillus niger ATCC 6275 after 72 hrs by serial dilution method; type: functional; details: ATCC 6275, 72 h
Enterobacter cloacae [25] = assay: Bactericidal activity against Enterobacter cloacae incubated for 24 hrs followed by serial sub-cultivation and measured after 24 hrs by microdilution method; type: functional
Penicillium ochrochloron [26] = assay: Antifungal activity against Penicillium ochrochloron ATCC 9112 after 72 hrs by serial dilution method; type: functional; details: ATCC 9112, 72 h
Listeria monocytogenes [27] = assay: Antibacterial activity against Listeria monocytogenes NCTC 7973 after 24 hrs by microdilution method; type: functional; details: NCTC 7973, 24 h
Aspergillus niger [28] = assay: Fungicidal activity against Aspergillus niger ATCC 6275 incubated for 72 hrs followed by serial sub-cultivation for 72 hrs and measured after 72 hrs by serial dilution method; type: functional
Bacillus cereus [29] = assay: Bactericidal activity against Bacillus cereus incubated for 24 hrs followed by serial sub-cultivation and measured after 24 hrs by microdilution method; type: functional
Escherichia coli [30] = assay: Antibacterial activity against Escherichia coli ATCC 35210 after 24 hrs by microdilution method; type: functional; details: ATCC 35210, 24 h
Salmonella typhimurium [31] = assay: Antibacterial activity against Salmonella typhimurium ATCC 13311 after 24 hrs by microdilution method; type: functional, Salmonella enterica subsp. enterica serovar Typhimurium; details: Salmonella enterica, ATCC 13311, 24 h
Aspergillus versicolor [32] = assay: Fungicidal activity against Aspergillus versicolor ATCC 11730 incubated for 72 hrs followed by serial sub-cultivation for 72 hrs and measured after 72 hrs by serial dilution method; type: functional

SMILES: O=C(Cc1nsc2ccccc12)NN1C(=O)CSC1c1ccccc1 (stereo unspecified)
- MIC (Aspergillus versicolor [1]): 216 µM (≈ 79.8 µg/mL)
- MIC (Talaromyces funiculosus [2]): 216 µM (≈ 79.8 µg/mL)
- MIC (Trichoderma viride [3]): 54 µM (≈ 20 µg/mL)
- MFC99.5 (Talaromyces funiculosus [4]): 21.6 ×10⁻² umol/ml
- MBC99.5 (Pseudomonas aeruginosa [5]): 40.5 ×10⁻² umol/ml
- MBC99.5 (Salmonella typhimurium [6]): 40.5 ×10⁻² umol/ml
- MIC (Micrococcus flavus [7]): 297 µM (≈ 110 µg/mL)
- MBC99.5 (Listeria monocytogenes [8]): 40.5 ×10⁻² umol/ml
- MIC (Staphylococcus aureus [9]): 216 µM (≈ 79.8 µg/mL)
- MFC99.5 (Aspergillus ochraceus [10]): 10.8 ×10⁻² umol/ml
- MIC (Enterobacter cloacae [11]): 108 µM (≈ 39.9 µg/mL)
- MBC99.5 (Staphylococcus aureus [12]): 40.5 ×10⁻² umol/ml
- MBC99.5 (Micrococcus flavus [13]): 40.5 ×10⁻² umol/ml
- MBC99.5 (Escherichia coli [14]): 40.5 ×10⁻² umol/ml
- MFC99.5 (Aspergillus fumigatus [15]): 40.5 ×10⁻² umol/ml
- MFC99.5 (Penicillium ochrochloron [16]): 21.6 ×10⁻² umol/ml
- MIC (Bacillus cereus [17]): 216 µM (≈ 79.8 µg/mL)
- MIC (Pseudomonas aeruginosa [18]): 216 µM (≈ 79.8 µg/mL)
- MIC (Aspergillus ochraceus [19]): 54 µM (≈ 20 µg/mL)
- MFC99.5 (Trichoderma viride [20]): 10.8 ×10⁻² umol/ml
- MFC99.5 (Candida albicans [21]): 40.5 ×10⁻² umol/ml
- MIC (Aspergillus fumigatus [22]): 108 µM (≈ 39.9 µg/mL)
- MIC (Candida albicans [23]): 216 µM (≈ 79.8 µg/mL)
- MIC (Aspergillus niger [24]): 162 µM (≈ 59.9 µg/mL)
- MBC99.5 (Enterobacter cloacae [25]): 21.4 ×10⁻² umol/ml
- MIC (Penicillium ochrochloron [26]): 162 µM (≈ 59.9 µg/mL)
- MIC (Listeria monocytogenes [27]): 216 µM (≈ 79.8 µg/mL)
- MFC99.5 (Aspergillus niger [28]): 21.6 ×10⁻² umol/ml
- MBC99.5 (Bacillus cereus [29]): 40.5 ×10⁻² umol/ml
- MIC (Escherichia coli [30]): 216 µM (≈ 79.8 µg/mL)
- MIC (Salmonella typhimurium [31]): 216 µM (≈ 79.8 µg/mL)
- MFC99.5 (Aspergillus versicolor [32]): 40.5 ×10⁻² umol/ml

SMILES: O=C(Cc1nsc2ccccc12)NN1C(=O)CSC1c1ccccc1Cl (stereo unspecified)
- MIC (Aspergillus versicolor [1]): 74 µM (≈ 29.9 µg/mL)
- MIC (Talaromyces funiculosus [2]): 100 µM (≈ 40.4 µg/mL)
- MIC (Trichoderma viride [3]): 74 µM (≈ 29.9 µg/mL)
- MFC99.5 (Talaromyces funiculosus [4]): 19.8 ×10⁻² umol/ml
- MBC99.5 (Pseudomonas aeruginosa [5]): 74.4 ×10⁻² umol/ml
- MBC99.5 (Salmonella typhimurium [6]): 37.2 ×10⁻² umol/ml
- MIC (Micrococcus flavus [7]): 273 µM (≈ 110 µg/mL)
- MBC99.5 (Listeria monocytogenes [8]): 74.4 ×10⁻² umol/ml
- MIC (Staphylococcus aureus [9]): 198 µM (≈ 80 µg/mL)
- MFC99.5 (Aspergillus ochraceus [10]): 19.8 ×10⁻² umol/ml
- MIC (Enterobacter cloacae [11]): 273 µM (≈ 110 µg/mL)
- MBC99.5 (Staphylococcus aureus [12]): 37.2 ×10⁻² umol/ml
- MBC99.5 (Micrococcus flavus [13]): 37.2 ×10⁻² umol/ml
- MBC99.5 (Escherichia coli [14]): 37.2 ×10⁻² umol/ml
- MFC99.5 (Aspergillus fumigatus [15]): 74.4 ×10⁻² umol/ml
- MFC99.5 (Penicillium ochrochloron [16]): 19.8 ×10⁻² umol/ml
- MIC (Bacillus cereus [17]): 198 µM (≈ 80 µg/mL)
- MIC (Pseudomonas aeruginosa [18]): 372 µM (≈ 150 µg/mL)
- MIC (Aspergillus ochraceus [19]): 100 µM (≈ 40.4 µg/mL)
- MFC99.5 (Trichoderma viride [20]): 10 ×10⁻² umol/ml
- MFC99.5 (Candida albicans [21]): 37.2 ×10⁻² umol/ml
- MIC (Aspergillus fumigatus [22]): 372 µM (≈ 150 µg/mL)
- MIC (Candida albicans [23]): 198 µM (≈ 80 µg/mL)
- MIC (Aspergillus niger [24]): 144 µM (≈ 58.2 µg/mL)
- MBC99.5 (Enterobacter cloacae [25]): 37.2 ×10⁻² umol/ml
- MIC (Penicillium ochrochloron [26]): 144 µM (≈ 58.2 µg/mL)
- MIC (Listeria monocytogenes [27]): 372 µM (≈ 150 µg/mL)
- MFC99.5 (Aspergillus niger [28]): 19.8 ×10⁻² umol/ml
- MBC99.5 (Bacillus cereus [29]): 37.2 ×10⁻² umol/ml
- MIC (Escherichia coli [30]): 198 µM (≈ 80 µg/mL)
- MIC (Salmonella typhimurium [31]): 198 µM (≈ 80 µg/mL)
- MFC99.5 (Aspergillus versicolor [32]): 10 ×10⁻² umol/ml

SMILES: O=C(NN1C(=O)CSC1c1c(F)cccc1F)c1nsc2ccccc12 (stereo unspecified)
- MIC (Aspergillus versicolor [1]): 204 µM (≈ 79.9 µg/mL)
- MIC (Talaromyces funiculosus [2]): 102 µM (≈ 39.9 µg/mL)
- MIC (Trichoderma viride [3]): 51 µM (≈ 20 µg/mL)
- MFC99.5 (Talaromyces funiculosus [4]): 20.4 ×10⁻² umol/ml
- MBC99.5 (Pseudomonas aeruginosa [5]): 40.8 ×10⁻² umol/ml
- MBC99.5 (Salmonella typhimurium [6]): 40.8 ×10⁻² umol/ml
- MIC (Micrococcus flavus [7]): 102 µM (≈ 39.9 µg/mL)
- MBC99.5 (Listeria monocytogenes [8]): 40.8 ×10⁻² umol/ml
- MIC (Staphylococcus aureus [9]): 102 µM (≈ 39.9 µg/mL)
- MFC99.5 (Aspergillus ochraceus [10]): 10.2 ×10⁻² umol/ml
- MIC (Enterobacter cloacae [11]): 102 µM (≈ 39.9 µg/mL)
- MBC99.5 (Staphylococcus aureus [12]): 20.4 ×10⁻² umol/ml
- MBC99.5 (Micrococcus flavus [13]): 20.4 ×10⁻² umol/ml
- MBC99.5 (Escherichia coli [14]): 20.4 ×10⁻² umol/ml
- MFC99.5 (Aspergillus fumigatus [15]): 51 ×10⁻² umol/ml
- MFC99.5 (Penicillium ochrochloron [16]): 51 ×10⁻² umol/ml
- MIC (Bacillus cereus [17]): 102 µM (≈ 39.9 µg/mL)
- MIC (Pseudomonas aeruginosa [18]): 204 µM (≈ 79.9 µg/mL)
- MIC (Aspergillus ochraceus [19]): 51 µM (≈ 20 µg/mL)
- MFC99.5 (Trichoderma viride [20]): 10.2 ×10⁻² umol/ml
- MFC99.5 (Candida albicans [21]): 51 ×10⁻² umol/ml
- MIC (Aspergillus fumigatus [22]): 408 µM (≈ 160 µg/mL)
- MIC (Candida albicans [23]): 408 µM (≈ 160 µg/mL)
- MIC (Aspergillus niger [24]): 204 µM (≈ 79.9 µg/mL)
- MBC99.5 (Enterobacter cloacae [25]): 20.4 ×10⁻² umol/ml
- MIC (Penicillium ochrochloron [26]): 102 µM (≈ 39.9 µg/mL)
- MIC (Listeria monocytogenes [27]): 204 µM (≈ 79.9 µg/mL)
- MFC99.5 (Aspergillus niger [28]): 40.8 ×10⁻² umol/ml
- MBC99.5 (Bacillus cereus [29]): 20.4 ×10⁻² umol/ml
- MIC (Escherichia coli [30]): 102 µM (≈ 39.9 µg/mL)
- MIC (Salmonella typhimurium [31]): 204 µM (≈ 79.9 µg/mL)
- MFC99.5 (Aspergillus versicolor [32]): 40.8 ×10⁻² umol/ml
